# Measured values from PubChem BioAssay (NCI).
#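 Each compound was tested at five concentrations against cells in 96-well plates for 48 hours. TGI denotes the concentration required for complete inhibition of growth.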
# Assays:
# Assay in all cases: DTP human tumour cell line panel, 48 h
# NCI-H460 lung = tested on: NCI-H460 lung
# SK-MEL-5 melanoma = tested on: SK-MEL-5 melanoma
# HOP-92 NSCLC = tested on: HOP-92 NSCLC
# HL-60(TB) leukemia = tested on: HL-60(TB) leukemia
# RXF 393 renal = tested on: RXF 393 renal
# PC-3 prostate = tested on: PC-3 prostate
# UO-31 renal = tested on: UO-31 renal
# OVCAR-8 ovarian = tested on: OVCAR-8 ovarian
# HT29 colon = tested on: HT29 colon
# UACC-62 melanoma = tested on: UACC-62 melanoma
# RPMI-8226 leukemia = tested on: RPMI-8226 leukemia
# OVCAR-5 ovarian = tested on: OVCAR-5 ovarian
# 786-0 renal = tested on: 786-0 renal
# BT-549 breast = tested on: BT-549 breast
Structure (SMILES),TGI (NCI-H460 lung),TGI (SK-MEL-5 melanoma),TGI (HOP-92 NSCLC),TGI (HL-60(TB) leukemia),TGI (RXF 393 renal),TGI (PC-3 prostate),TGI (UO-31 renal),TGI (OVCAR-8 ovarian),TGI (HT29 colon),TGI (UACC-62 melanoma),TGI (RPMI-8226 leukemia),TGI (OVCAR-5 ovarian),TGI (786-0 renal),TGI (BT-549 breast)
CC1(C)OCC(CO)(CO)CO1,> 100 µM,> 100 µM,> 100 µM,> 100 µM,> 100 µM,> 100 µM,> 100 µM,> 100 µM,> 100 µM,–,–,–,–,–
O=C(NN1C(=O)CS(=O)(=O)C1c1ccc(Cl)c(Cl)c1)c1ccncc1 (stereo unspecified),> 100 µM,> 100 µM,> 100 µM,> 90.4 µM,> 100 µM,–,> 100 µM,> 100 µM,> 100 µM,> 100 µM,> 71.5 µM,> 100 µM,–,–
O=C(c1cscc1CCc1ccccc1)c1cscc1CCc1ccccc1,> 100 µM,> 100 µM,–,–,> 100 µM,> 100 µM,> 100 µM,> 100 µM,–,> 100 µM,> 100 µM,> 100 µM,> 100 µM,> 100 µM
O=Cc1cn(CCCCCCCCn2cc(C=O)c3ccccc32)c2ccccc12,> 10 µM,> 10 µM,–,> 10 µM,> 10 µM,> 10 µM,> 10 µM,> 10 µM,> 10 µM,> 10 µM,> 10 µM,> 10 µM,–,–
O=c1[nH]c(=O)c2c([nH]1)[nH]c1ccc(Br)cc12,–,> 100 µM,> 100 µM,> 100 µM,> 100 µM,–,> 100 µM,> 100 µM,> 100 µM,> 100 µM,> 100 µM,> 100 µM,> 100 µM,> 100 µM
C=C1CC(OC)(C(OC)C(=O)N[C@H]2OCO[C@H]3C2O[C@H](C[C@@H](COC)OC)C(C)(C)C3OC)O[C@H](C)[C@@H]1C (stereo partly specified),5.96 µM,1.3 µM,4.76 µM,1.33 µM,5.38 µM,–,5.71 µM,6.89 µM,5.49 µM,3.72 µM,0.917 µM,4 µM,–,–
C=C(C)[C@H]1CC[C@@]23O[C@@H]2[C@@H](C[C@@]2(C)CC(=O)[C@H](CC(=O)C1)O2)OC(=O)[C@@]12CC[C@H](C(=C)C)CC(=O)C[C@H]4O[C@](C)(CC4=O)C[C@@H](OC3=O)[C@@H]1O2,–,> 100 µM,> 100 µM,> 100 µM,> 100 µM,> 100 µM,> 100 µM,> 100 µM,> 100 µM,> 100 µM,> 100 µM,> 100 µM,> 100 µM,–
CCOC(=O)C1=C(C)N(c2ccc(Cl)cc2)C2(O)C=CC(=O)C3=C(O)c4ccccc4C(=O)C312 (stereo unspecified),18.2 µM,20.4 µM,8.98 µM,5.77 µM,–,15.8 µM,15.8 µM,19.1 µM,–,9.01 µM,4.42 µM,30.7 µM,4.07 µM,28 µM
CCN(CC)C(=O)CCn1cc(F)c(=O)[nH]c1=O,> 100 µM,> 100 µM,–,> 100 µM,> 100 µM,–,> 100 µM,> 100 µM,> 100 µM,> 100 µM,> 100 µM,> 100 µM,> 100 µM,–
COC(=O)[C@@H]1CN(C(=O)CCc2ccccc2)C(=O)N1,> 100 µM,> 100 µM,> 100 µM,> 100 µM,> 100 µM,> 100 µM,> 100 µM,> 100 µM,> 100 µM,–,> 100 µM,> 100 µM,> 100 µM,–
Cc1ccc(N2C(=O)C3c4[nH]c5ccc(C)cc5c4C4CCC(C(C)(C)C)CC4C3C2=O)cc1 (stereo unspecified),20.4 µM,> 100 µM,52.1 µM,82.8 µM,–,70.3 µM,> 100 µM,24.4 µM,75.5 µM,30 µM,46.3 µM,30.8 µM,17.1 µM,75.9 µM
COc1ccccc1-n1nnc2c(N)nc(N)nc21,> 100 µM,> 100 µM,> 100 µM,> 100 µM,–,> 100 µM,> 100 µM,> 100 µM,> 100 µM,> 100 µM,> 100 µM,> 100 µM,> 100 µM,> 100 µM
C=C(COCO)C(C)=O,48.2 µM,31.5 µM,48.9 µM,5.78 µM,29.4 µM,34.8 µM,25.7 µM,24.6 µM,35 µM,32.3 µM,5.64 µM,35.3 µM,25.6 µM,–
Clc1sc(Cl)c2c1[C@H](Cl)C[C@@H]2Cl,> 100 µM,> 100 µM,34.4 µM,–,–,–,32.3 µM,34.9 µM,> 100 µM,43.7 µM,–,81.2 µM,48.9 µM,62.5 µM
CNc1cc([N+](=O)[O-])ccc1C(=O)N1CCC[C@H]1CO,> 100 µM,–,> 100 µM,> 100 µM,–,> 100 µM,> 100 µM,> 100 µM,> 100 µM,> 100 µM,> 100 µM,> 100 µM,> 100 µM,–
CC(=O)OCC1OC(n2c(C)c(C(C)=O)c(-c3ccco3)c(C#N)c2=S)C(OC(C)=O)C(OC(C)=O)C1OC(C)=O (stereo unspecified),> 100 µM,> 100 µM,87.5 µM,> 100 µM,> 100 µM,> 100 µM,–,> 100 µM,> 100 µM,> 100 µM,–,> 100 µM,> 100 µM,–
CNC(=O)C(C)Oc1ccc(OCC2CCCCC2)cc1 (stereo unspecified),> 100 µM,> 100 µM,–,> 100 µM,> 100 µM,–,> 100 µM,> 100 µM,> 100 µM,> 100 µM,–,–,> 100 µM,–
ICC1CCCO1 (stereo unspecified),> 100 µM,> 100 µM,> 100 µM,> 100 µM,> 100 µM,–,–,> 100 µM,> 100 µM,–,> 100 µM,> 100 µM,–,–
Clc1cccc(-c2nc3cccc4c3n2Cc2ncccc2-4)c1,> 100 µM,–,> 100 µM,–,> 100 µM,> 100 µM,–,> 100 µM,> 100 µM,> 100 µM,–,> 100 µM,> 100 µM,> 100 µM
